Laboratory results published in PubChem BioAssay (NCI).
“And” between values parts separate entries of the source, which are not always exact repeats. Equal values may be shown once.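 Step 1: Grow cells in 96-well plates. Step 2: Expose to compound for 48 hours at 5 concentrations. Step 3: Interpolate endpoints linearly; if unreached, use highest concentration. GI50 = concentration required for 50% inhibition of growth. TGI marks complete inhibition of growth.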

system: SNB-19 CNS; assay: growth of human tumour cells (NCI), 48 h

Structure (SMILES) | TGI [µM] | GI50
Nc1nc2[nH]cc(CCc3ccc(C(=O)N[C@@H](CCC(=O)O)C(=O)O)cc3)c2c(=O)[nH]1 | > 100 | 
Fc1cc(-c2nnc3n2N=C(c2ccc(Cl)cc2)CS3)c(Cl)cc1Cl | 51.1 | 19.1 µM
CN1CCN(C(=O)COc2ccc(C34CC5CC(CC(C5)C3)C4)cc2)CC1 | 26.8 | 13.6 µM
COc1ccccc1NC(=O)c1cc2cc(Br)ccc2cc1O | 16.1 | 3.46 µM
CC(=O)OCc1ccc2c(c1)C(O)NC(=O)O2 (stereo unspecified) | > 100 | 
O=C(Nc1nn2c(-c3cc(C(F)(F)F)cc(C(F)(F)F)c3)nnc2s1)C1CCCC1 | > 100 | 0.614 µM
COC(=O)[C@]12CC[C@@H](C)[C@H](C)[C@@H]1C1=CC[C@@H]3[C@@]4(C)C[C@@H](O)[C@H](O)[C@@](C)(CO)[C@@H]4[C@H](O)C[C@@]3(C)[C@]1(C)CC2 | 38.9 | 13.2 µM
COc1ccc(CN2C(=O)C(Cl)=C(Nc3cccc(C(F)(F)F)c3)C2=O)cc1 | 63.5 | 5.09 µM
COCCn1cc(-c2nc(-c3cc4cccnc4[nH]3)cs2)c2cc(OC)ccc21 | > 100 | 6.48 µM
O=[N+]([O-])c1cc([N+](=O)[O-])c(C(F)(F)F)cc1NN=C(c1ccc(O)cc1)c1ccc(O)cc1 | 16.6 | 4.67 µM
NCCNCCNCCN | > 100 | > 100 µM
c1ccc(Nc2ncc(-c3ccccc3)o2)cc1 | > 25 | > 25 µM
COc1ccc(C(c2cc(OC)c(OC)c(OC)c2)n2cncn2)cc1O (stereo unspecified) | > 100 | 0.578 µM
COc1c2ccccc2c(OC)c2[nH]c(=O)ccc12 | 4.11 | 2.02 µM
O=C(O)C(Cl)Cl | > 10000 | 7520 µM and > 10000 µM
NC(=S)N/N=C\c1nccc2c(C(F)(F)F)cccc12 | > 100 | 0.382 µM
CC(=O)N[C@@H](Cc1ccc(OP(=O)(O)O)cc1)C(=O)N[C@H]1CCC(=O)N2CCC[C@@H](C(=O)Nc3cccc4ccccc34)N2C1=O | > 25 | > 25 µM

system: RXF 393 renal; assay: growth of human tumour cells (NCI), 48 h

Structure (SMILES) | TGI [µM] | GI50
Nc1nc2[nH]cc(CCc3ccc(C(=O)N[C@@H](CCC(=O)O)C(=O)O)cc3)c2c(=O)[nH]1 | > 100 | 
Fc1cc(-c2nnc3n2N=C(c2ccc(Cl)cc2)CS3)c(Cl)cc1Cl | 14.7 | 5.57 µM
CN1CCN(C(=O)COc2ccc(C34CC5CC(CC(C5)C3)C4)cc2)CC1 | 21.1 | 7.44 µM
COc1ccccc1NC(=O)c1cc2cc(Br)ccc2cc1O | 7.11 | 2.36 µM
CC(=O)OCc1ccc2c(c1)C(O)NC(=O)O2 (stereo unspecified) | > 100 | 
O=C(Nc1nn2c(-c3cc(C(F)(F)F)cc(C(F)(F)F)c3)nnc2s1)C1CCCC1 | > 33.9 | 1.62 µM
COC(=O)[C@]12CC[C@@H](C)[C@H](C)[C@@H]1C1=CC[C@@H]3[C@@]4(C)C[C@@H](O)[C@H](O)[C@@](C)(CO)[C@@H]4[C@H](O)C[C@@]3(C)[C@]1(C)CC2 | 23.1 | 9.32 µM
COc1ccc(CN2C(=O)C(Cl)=C(Nc3cccc(C(F)(F)F)c3)C2=O)cc1 | 6.01 | 0.0458 µM
COCCn1cc(-c2nc(-c3cc4cccnc4[nH]3)cs2)c2cc(OC)ccc21 | 5.41 | 0.95 µM
O=[N+]([O-])c1cc([N+](=O)[O-])c(C(F)(F)F)cc1NN=C(c1ccc(O)cc1)c1ccc(O)cc1 | 8.47 | 2.64 µM
NCCNCCNCCN | > 100 | > 100 µM
c1ccc(Nc2ncc(-c3ccccc3)o2)cc1 | > 25 | > 19.7 µM
COc1ccc(C(c2cc(OC)c(OC)c(OC)c2)n2cncn2)cc1O (stereo unspecified) | > 100 | 0.321 µM
COc1c2ccccc2c(OC)c2[nH]c(=O)ccc12 | > 100 | 16.3 µM
O=C(O)C(Cl)Cl | > 10000 | 5140 µM and > 10000 µM
NC(=S)N/N=C\c1nccc2c(C(F)(F)F)cccc12 | 2.53 | 0.251 µM
CC(=O)N[C@@H](Cc1ccc(OP(=O)(O)O)cc1)C(=O)N[C@H]1CCC(=O)N2CCC[C@@H](C(=O)Nc3cccc4ccccc34)N2C1=O | > 25 | > 25 µM

system: HCT-116 colon; assay: growth of human tumour cells (NCI), 48 h

Structure (SMILES) | GI50 | TGI [µM]
Nc1nc2[nH]cc(CCc3ccc(C(=O)N[C@@H](CCC(=O)O)C(=O)O)cc3)c2c(=O)[nH]1 | 0.127 µM | > 100
Fc1cc(-c2nnc3n2N=C(c2ccc(Cl)cc2)CS3)c(Cl)cc1Cl | 2.36 µM | 5.85
CN1CCN(C(=O)COc2ccc(C34CC5CC(CC(C5)C3)C4)cc2)CC1 | 13.9 µM | 26.9
COc1ccccc1NC(=O)c1cc2cc(Br)ccc2cc1O | 2.8 µM | 10.3
CC(=O)OCc1ccc2c(c1)C(O)NC(=O)O2 (stereo unspecified) |  | > 100
O=C(Nc1nn2c(-c3cc(C(F)(F)F)cc(C(F)(F)F)c3)nnc2s1)C1CCCC1 | 0.518 µM | > 100
COC(=O)[C@]12CC[C@@H](C)[C@H](C)[C@@H]1C1=CC[C@@H]3[C@@]4(C)C[C@@H](O)[C@H](O)[C@@](C)(CO)[C@@H]4[C@H](O)C[C@@]3(C)[C@]1(C)CC2 | 11.1 µM | 26.4
COc1ccc(CN2C(=O)C(Cl)=C(Nc3cccc(C(F)(F)F)c3)C2=O)cc1 | 3.45 µM | 15.4
COCCn1cc(-c2nc(-c3cc4cccnc4[nH]3)cs2)c2cc(OC)ccc21 | 3.49 µM | 16
O=[N+]([O-])c1cc([N+](=O)[O-])c(C(F)(F)F)cc1NN=C(c1ccc(O)cc1)c1ccc(O)cc1 | 2.67 µM | 11.9
NCCNCCNCCN | > 100 µM | > 100
c1ccc(Nc2ncc(-c3ccccc3)o2)cc1 | 24.5 µM | > 25
COc1ccc(C(c2cc(OC)c(OC)c(OC)c2)n2cncn2)cc1O (stereo unspecified) | 0.448 µM | > 100
COc1c2ccccc2c(OC)c2[nH]c(=O)ccc12 | 4.98 µM | > 100
O=C(O)C(Cl)Cl | 6700 µM and > 10000 µM | > 10000
NC(=S)N/N=C\c1nccc2c(C(F)(F)F)cccc12 | 0.298 µM | 4.26
CC(=O)N[C@@H](Cc1ccc(OP(=O)(O)O)cc1)C(=O)N[C@H]1CCC(=O)N2CCC[C@@H](C(=O)Nc3cccc4ccccc34)N2C1=O | > 25 µM | > 25

system: SK-MEL-5 melanoma; assay: growth of human tumour cells (NCI), 48 h

Structure (SMILES) | TGI [µM] | GI50 [µM]
Nc1nc2[nH]cc(CCc3ccc(C(=O)N[C@@H](CCC(=O)O)C(=O)O)cc3)c2c(=O)[nH]1 | > 100 | 
Fc1cc(-c2nnc3n2N=C(c2ccc(Cl)cc2)CS3)c(Cl)cc1Cl | 15 | 3.91
CN1CCN(C(=O)COc2ccc(C34CC5CC(CC(C5)C3)C4)cc2)CC1 | 22.7 | 10.3
COc1ccccc1NC(=O)c1cc2cc(Br)ccc2cc1O | 3.11 | 1.46
CC(=O)OCc1ccc2c(c1)C(O)NC(=O)O2 (stereo unspecified) | > 100 | 
O=C(Nc1nn2c(-c3cc(C(F)(F)F)cc(C(F)(F)F)c3)nnc2s1)C1CCCC1 | 1.74 | 0.251
COC(=O)[C@]12CC[C@@H](C)[C@H](C)[C@@H]1C1=CC[C@@H]3[C@@]4(C)C[C@@H](O)[C@H](O)[C@@](C)(CO)[C@@H]4[C@H](O)C[C@@]3(C)[C@]1(C)CC2 | 28.9 | 15.3
COc1ccc(CN2C(=O)C(Cl)=C(Nc3cccc(C(F)(F)F)c3)C2=O)cc1 | 18.5 | 4.38
COCCn1cc(-c2nc(-c3cc4cccnc4[nH]3)cs2)c2cc(OC)ccc21 | 21.4 | 4.47
O=[N+]([O-])c1cc([N+](=O)[O-])c(C(F)(F)F)cc1NN=C(c1ccc(O)cc1)c1ccc(O)cc1 | 3 | 1.64
NCCNCCNCCN | > 100 | > 100
c1ccc(Nc2ncc(-c3ccccc3)o2)cc1 | > 25 | > 25
COc1ccc(C(c2cc(OC)c(OC)c(OC)c2)n2cncn2)cc1O (stereo unspecified) | 38.3 | 0.44
COc1c2ccccc2c(OC)c2[nH]c(=O)ccc12 | 2.19 | 0.847
O=C(O)C(Cl)Cl | > 10000 | > 10000
NC(=S)N/N=C\c1nccc2c(C(F)(F)F)cccc12 | 0.921 | 0.183
CC(=O)N[C@@H](Cc1ccc(OP(=O)(O)O)cc1)C(=O)N[C@H]1CCC(=O)N2CCC[C@@H](C(=O)Nc3cccc4ccccc34)N2C1=O | > 25 | > 25

system: HOP-92 NSCLC; assay: growth of human tumour cells (NCI), 48 h

Structure (SMILES) | TGI [µM] | GI50
Nc1nc2[nH]cc(CCc3ccc(C(=O)N[C@@H](CCC(=O)O)C(=O)O)cc3)c2c(=O)[nH]1 | > 100 | 
Fc1cc(-c2nnc3n2N=C(c2ccc(Cl)cc2)CS3)c(Cl)cc1Cl | 36.1 | 13.7 µM
CN1CCN(C(=O)COc2ccc(C34CC5CC(CC(C5)C3)C4)cc2)CC1 | 7.23 | 1.47 µM
COc1ccccc1NC(=O)c1cc2cc(Br)ccc2cc1O | 4.78 | 1.34 µM
CC(=O)OCc1ccc2c(c1)C(O)NC(=O)O2 (stereo unspecified) | > 100 | 
O=C(Nc1nn2c(-c3cc(C(F)(F)F)cc(C(F)(F)F)c3)nnc2s1)C1CCCC1 | 0.876 | 0.197 µM
COC(=O)[C@]12CC[C@@H](C)[C@H](C)[C@@H]1C1=CC[C@@H]3[C@@]4(C)C[C@@H](O)[C@H](O)[C@@](C)(CO)[C@@H]4[C@H](O)C[C@@]3(C)[C@]1(C)CC2 | 27.9 | 12.9 µM
COc1ccc(CN2C(=O)C(Cl)=C(Nc3cccc(C(F)(F)F)c3)C2=O)cc1 | 27 | 0.885 µM
COCCn1cc(-c2nc(-c3cc4cccnc4[nH]3)cs2)c2cc(OC)ccc21 | 2.46 | 0.387 µM
O=[N+]([O-])c1cc([N+](=O)[O-])c(C(F)(F)F)cc1NN=C(c1ccc(O)cc1)c1ccc(O)cc1 | 18.8 | 3.05 µM
NCCNCCNCCN | > 100 | > 100 µM
c1ccc(Nc2ncc(-c3ccccc3)o2)cc1 | > 25 | > 25 µM
COc1ccc(C(c2cc(OC)c(OC)c(OC)c2)n2cncn2)cc1O (stereo unspecified) | > 100 | 9.69 µM
COc1c2ccccc2c(OC)c2[nH]c(=O)ccc12 | > 100 | 33.5 µM
O=C(O)C(Cl)Cl | > 10000 | 3630 µM and > 10000 µM
NC(=S)N/N=C\c1nccc2c(C(F)(F)F)cccc12 | 1.35 | 0.226 µM
CC(=O)N[C@@H](Cc1ccc(OP(=O)(O)O)cc1)C(=O)N[C@H]1CCC(=O)N2CCC[C@@H](C(=O)Nc3cccc4ccccc34)N2C1=O | > 25 | > 23.9 µM
